Reference: publication PMC4224607 (Chemical communications (Cambridge, England), 2014)

Experiment: COPAS bead-based screening, background binding of the dye to library beads
Details: TR-labeled lysine and TR-labeled hCAII

O=S(=O)([O-])c1cc(S(=O)(=O)Cl)ccc1C1=c2cc3c4c(c2Oc2c1cc1c5c2CCCN5CCC1)CCC[N+]=4CCC3 [TR]
composition of positive peptides: positively charged amino acids: reduced abundance of positively charged amino acids
